Data taken from ChEMBL document CHEMBL5728507, “Tricyclic heterocyclic derivatives and uses thereof” (2021).

Target: Macrophage colony-stimulating factor 1 receptor (Homo sapiens, UniProt P07333)
Assay: Biochemical Assay: IC50 values were determined using the Z′-LYTE® activity assay, with ATP concentration used at Km app for the specific assay (500 μM ATP for CSF-1R (FMS) and 75 μM ATP for KDR (VEGFR2)).The Z′-LYTE® biochemical assay employs a fluorescence-based, coupled-enzyme format and is based on the differential sensitivity of phosphorylated and non-phosphorylated peptides to proteolytic …

Sequence of Macrophage colony-stimulating factor 1 receptor (P07333 whole entry): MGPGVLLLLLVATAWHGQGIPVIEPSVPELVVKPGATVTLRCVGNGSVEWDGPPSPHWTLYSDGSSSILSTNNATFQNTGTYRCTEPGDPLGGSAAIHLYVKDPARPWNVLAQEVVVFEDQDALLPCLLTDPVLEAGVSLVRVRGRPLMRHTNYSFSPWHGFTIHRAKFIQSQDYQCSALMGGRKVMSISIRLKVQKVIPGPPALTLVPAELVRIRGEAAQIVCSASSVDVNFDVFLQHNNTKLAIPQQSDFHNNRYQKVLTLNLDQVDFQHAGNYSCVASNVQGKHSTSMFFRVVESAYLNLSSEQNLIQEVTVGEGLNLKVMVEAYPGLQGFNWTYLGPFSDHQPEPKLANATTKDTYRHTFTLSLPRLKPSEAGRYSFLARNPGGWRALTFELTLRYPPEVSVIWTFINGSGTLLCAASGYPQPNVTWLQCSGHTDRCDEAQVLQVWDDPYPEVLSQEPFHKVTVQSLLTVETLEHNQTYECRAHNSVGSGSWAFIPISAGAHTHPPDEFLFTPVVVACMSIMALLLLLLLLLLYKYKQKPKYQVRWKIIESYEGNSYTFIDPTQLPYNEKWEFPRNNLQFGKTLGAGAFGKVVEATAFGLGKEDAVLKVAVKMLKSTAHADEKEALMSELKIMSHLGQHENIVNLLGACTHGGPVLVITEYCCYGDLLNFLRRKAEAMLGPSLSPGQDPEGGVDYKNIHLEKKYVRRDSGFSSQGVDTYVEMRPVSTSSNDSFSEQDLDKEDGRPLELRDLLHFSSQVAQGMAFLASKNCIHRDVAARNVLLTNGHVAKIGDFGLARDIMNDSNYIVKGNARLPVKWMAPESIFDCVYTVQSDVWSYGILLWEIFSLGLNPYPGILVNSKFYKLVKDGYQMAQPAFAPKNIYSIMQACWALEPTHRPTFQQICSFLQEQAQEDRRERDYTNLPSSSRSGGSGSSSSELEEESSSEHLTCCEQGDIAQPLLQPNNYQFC

Row | IC50 [nM] | Structure (SMILES)
1 | < 100 | Cc1cc(OCCN(C)C)c2oc3cc(Oc4cccc(NC(=O)Nc5ccccc5)c4)ccc3c(=O)c2c1
2 | < 100 | Cc1cc(OCCN(C)C)c2oc3cc(Oc4cccc(C(=O)Nc5ccccc5)c4)ccc3c(=O)c2c1
3 | < 100 | Cc1cc(OCCCN(C)C)c2oc3cc(Oc4cccc(C(=O)Nc5ccccc5)c4)ccc3c(=O)c2c1

Second part, the molecule before the results:

Row | Structure (SMILES) | IC50 [nM]
4 | Cc1cc(OCCCN(C)C)c2oc3cc(Oc4cccc(NC(=O)Nc5ccccc5)c4)ccc3c(=O)c2c1 | < 100
5 | Cc1cc(OCCCN2C[C@@H](C)N[C@@H](C)C2)c2oc3cc(Oc4ccc(CCC(=O)NC5CCCC5)nc4)ccc3c(=O)c2c1 | < 100
6 | Cc1cc(OCCN(C)C)c2oc3cc(Oc4ccc(CCC(=O)N5CCCC5)nc4)ccc3c(=O)c2c1 | < 100
